From patent US9549932B2, “2-(morpholin-4-yl)-1,7-naphthyridines” (BAYER PHARMA AKTIENGESELLSCHAFT, priority 2014, dated 2017) come the findings set out here.

One experiment concerns HeLa cells. Nature of the experiment: Proliferation assay HeLa (crystal violet).
The next experiment relates to NCI-H460 cells. Nature of the experiment: Proliferation assay NCI-H460 (crystal violet). The settings on record: read-out: Inhibition of NCI-H460 cell proliferation, 4 days incubation.
Experiment [1] addresses full-length human ATR protein (Homo sapiens (Human), UniProt Q13535). Nature of the experiment: Binding assay ATR (TR-FRET tracer displacement). Conditions: TR-FRET. Summed up:
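Full-length human GST-ATR co-purified with ATRIP, pre-complexed 30 min at 22 °C with anti-GST-Tb antibody, then pre-bound with compound 10 min. Tracer A or B added (2 µl of 100 nM solution), 30 min at 22 °C.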

The subject of the next experiment is B16F10 cells. Nature of the experiment: Proliferation assay B16F10 (crystal violet). The settings on record: read-out: Inhibition of B16F10 cell proliferation, 4 days incubation.
The next experiment has as its system DU145 cells. The experiment can be described thus: Proliferation assay DU145 (crystal violet). Conditions: read-out: Inhibition of DU145 cell proliferation, 4 days incubation.
The next experiment concerns Caco-2 cells. The experiment can be described thus: Proliferation assay Caco-2 (crystal violet). It counts as cell-based, human. Conditions: 4 days incubation, read-out: Inhibition of Caco-2 cell proliferation.
The mark [2] stands for this setting: tracer A, read-out: ATR binding (tracer A) IC50.
The mark [3] stands for this setting: tracer B, read-out: ATR binding (tracer B) IC50.

Like-named read-outs stand apart in the source and are kept apart here. Bounds are passed on as bounds.

Sequence of full-length human ATR protein (Q13535 other isoform, or with tags, fused parts or gaps): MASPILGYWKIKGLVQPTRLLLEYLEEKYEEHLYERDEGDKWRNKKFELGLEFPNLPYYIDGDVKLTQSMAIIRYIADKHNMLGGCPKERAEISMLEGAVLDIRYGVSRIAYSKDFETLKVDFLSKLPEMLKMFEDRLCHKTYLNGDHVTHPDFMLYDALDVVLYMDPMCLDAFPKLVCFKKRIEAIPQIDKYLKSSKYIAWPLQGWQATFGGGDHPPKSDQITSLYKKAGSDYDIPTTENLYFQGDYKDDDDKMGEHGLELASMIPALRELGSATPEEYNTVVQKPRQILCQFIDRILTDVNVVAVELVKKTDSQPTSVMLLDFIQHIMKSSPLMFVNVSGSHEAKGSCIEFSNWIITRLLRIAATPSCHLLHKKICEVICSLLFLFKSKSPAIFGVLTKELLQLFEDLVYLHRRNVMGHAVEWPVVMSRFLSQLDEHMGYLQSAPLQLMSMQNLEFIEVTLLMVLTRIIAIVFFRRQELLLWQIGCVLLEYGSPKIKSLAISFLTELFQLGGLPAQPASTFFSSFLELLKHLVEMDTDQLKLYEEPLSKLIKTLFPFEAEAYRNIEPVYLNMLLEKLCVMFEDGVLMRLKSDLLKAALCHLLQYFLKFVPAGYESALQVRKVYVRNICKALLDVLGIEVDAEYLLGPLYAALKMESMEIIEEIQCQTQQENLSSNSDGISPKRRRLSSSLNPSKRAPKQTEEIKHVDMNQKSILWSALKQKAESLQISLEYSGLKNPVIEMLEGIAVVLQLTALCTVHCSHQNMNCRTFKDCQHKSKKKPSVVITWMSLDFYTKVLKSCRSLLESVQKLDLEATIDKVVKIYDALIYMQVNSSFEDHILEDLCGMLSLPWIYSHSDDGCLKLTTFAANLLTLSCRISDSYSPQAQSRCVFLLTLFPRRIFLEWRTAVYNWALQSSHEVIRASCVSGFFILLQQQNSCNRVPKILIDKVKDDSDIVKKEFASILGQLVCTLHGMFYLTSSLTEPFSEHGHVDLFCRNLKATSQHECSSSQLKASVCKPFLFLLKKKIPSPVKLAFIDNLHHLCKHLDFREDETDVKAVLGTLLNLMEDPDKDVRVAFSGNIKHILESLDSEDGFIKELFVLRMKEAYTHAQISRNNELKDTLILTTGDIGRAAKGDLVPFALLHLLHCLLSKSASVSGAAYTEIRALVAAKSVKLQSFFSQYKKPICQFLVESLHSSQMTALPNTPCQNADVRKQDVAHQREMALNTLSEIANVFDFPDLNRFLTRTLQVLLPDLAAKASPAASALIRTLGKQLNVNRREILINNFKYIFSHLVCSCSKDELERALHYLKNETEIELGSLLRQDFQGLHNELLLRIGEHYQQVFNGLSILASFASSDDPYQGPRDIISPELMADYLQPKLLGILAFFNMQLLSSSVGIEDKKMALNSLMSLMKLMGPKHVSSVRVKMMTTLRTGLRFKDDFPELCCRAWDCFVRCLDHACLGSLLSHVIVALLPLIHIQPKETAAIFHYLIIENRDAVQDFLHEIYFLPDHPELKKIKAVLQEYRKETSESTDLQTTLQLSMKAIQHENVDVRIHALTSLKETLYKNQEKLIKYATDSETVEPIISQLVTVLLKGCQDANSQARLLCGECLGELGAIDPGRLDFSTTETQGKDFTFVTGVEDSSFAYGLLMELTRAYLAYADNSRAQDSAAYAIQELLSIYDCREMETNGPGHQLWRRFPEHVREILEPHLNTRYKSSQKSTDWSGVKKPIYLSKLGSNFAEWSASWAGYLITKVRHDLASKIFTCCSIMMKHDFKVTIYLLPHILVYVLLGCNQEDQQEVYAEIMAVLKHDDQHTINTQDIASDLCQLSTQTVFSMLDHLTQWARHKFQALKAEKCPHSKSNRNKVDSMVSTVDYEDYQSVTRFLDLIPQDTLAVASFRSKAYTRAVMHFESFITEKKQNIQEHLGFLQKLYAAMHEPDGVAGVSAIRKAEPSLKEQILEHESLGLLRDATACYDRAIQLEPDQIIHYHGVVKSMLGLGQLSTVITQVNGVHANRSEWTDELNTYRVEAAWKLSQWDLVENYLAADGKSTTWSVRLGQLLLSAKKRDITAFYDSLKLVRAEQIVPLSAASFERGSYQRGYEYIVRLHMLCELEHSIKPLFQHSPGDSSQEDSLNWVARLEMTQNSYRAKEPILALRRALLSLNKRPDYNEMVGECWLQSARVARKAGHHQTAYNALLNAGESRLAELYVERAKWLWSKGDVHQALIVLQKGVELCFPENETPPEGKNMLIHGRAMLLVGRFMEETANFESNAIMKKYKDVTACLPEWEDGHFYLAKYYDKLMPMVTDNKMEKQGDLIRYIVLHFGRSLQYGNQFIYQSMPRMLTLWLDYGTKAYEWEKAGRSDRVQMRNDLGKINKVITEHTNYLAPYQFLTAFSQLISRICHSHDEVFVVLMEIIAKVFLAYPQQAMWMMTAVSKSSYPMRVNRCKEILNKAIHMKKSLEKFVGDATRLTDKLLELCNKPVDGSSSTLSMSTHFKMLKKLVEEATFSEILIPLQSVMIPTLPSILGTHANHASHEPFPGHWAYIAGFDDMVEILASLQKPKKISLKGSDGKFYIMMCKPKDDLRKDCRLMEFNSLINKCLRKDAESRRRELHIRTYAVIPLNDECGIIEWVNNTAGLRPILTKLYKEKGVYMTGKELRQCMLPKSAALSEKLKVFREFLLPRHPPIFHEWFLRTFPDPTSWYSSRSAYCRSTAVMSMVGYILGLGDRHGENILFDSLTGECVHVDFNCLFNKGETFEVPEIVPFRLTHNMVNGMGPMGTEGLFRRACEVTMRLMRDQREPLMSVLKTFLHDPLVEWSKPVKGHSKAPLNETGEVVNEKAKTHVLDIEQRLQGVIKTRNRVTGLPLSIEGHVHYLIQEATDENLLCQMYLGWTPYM
Sequence of full-length human ATR protein (Q8WXE1 other isoform, or with tags, fused parts or gaps partner): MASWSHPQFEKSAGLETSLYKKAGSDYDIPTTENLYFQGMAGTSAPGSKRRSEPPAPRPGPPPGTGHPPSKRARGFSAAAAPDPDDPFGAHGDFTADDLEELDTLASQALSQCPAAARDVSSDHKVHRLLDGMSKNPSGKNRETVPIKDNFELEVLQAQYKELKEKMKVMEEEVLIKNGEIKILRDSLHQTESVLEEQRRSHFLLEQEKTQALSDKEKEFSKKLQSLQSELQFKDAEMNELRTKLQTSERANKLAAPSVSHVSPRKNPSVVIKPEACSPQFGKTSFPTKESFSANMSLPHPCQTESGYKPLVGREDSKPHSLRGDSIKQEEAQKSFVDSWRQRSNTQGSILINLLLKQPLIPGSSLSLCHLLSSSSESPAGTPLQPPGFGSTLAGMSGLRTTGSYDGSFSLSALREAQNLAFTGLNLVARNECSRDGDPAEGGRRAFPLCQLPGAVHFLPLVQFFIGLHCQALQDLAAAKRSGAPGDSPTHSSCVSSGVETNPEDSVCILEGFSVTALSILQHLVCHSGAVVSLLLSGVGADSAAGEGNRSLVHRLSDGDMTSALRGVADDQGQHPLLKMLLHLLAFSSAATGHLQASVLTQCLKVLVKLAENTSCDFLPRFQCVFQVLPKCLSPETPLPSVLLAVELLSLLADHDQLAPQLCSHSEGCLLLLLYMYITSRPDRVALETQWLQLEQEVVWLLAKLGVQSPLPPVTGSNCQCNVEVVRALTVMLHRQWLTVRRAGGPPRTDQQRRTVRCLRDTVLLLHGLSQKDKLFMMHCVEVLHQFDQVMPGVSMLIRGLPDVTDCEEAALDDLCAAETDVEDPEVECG
Method for B16F10 cells: (§1) After 24 hours, the cells of one plate (zero plate) were dyed with crystal violet (see below), whereas the medium of the other plates was replaced with fresh culture medium (200 μl) to which the test substances were added in various concentrations (0 μM, and also in the range of 0.001-10 μM; the final concentration of the solvent dimethyl sulphoxide was 0.1 or 0.5%). The cells were incubated for 4 days in the presence of the test substances. […] After washing the fixed cells three times with water, the plates were dried at room temperature. The cells were stained by adding 100 μl/measurement point of a 0.1% strength crystal violet solution (pH adjusted to pH 3 by adding acetic acid). After washing the cells three times with water, the plates were dried at room temperature. The dye was dissolved by adding 100 μl/measurement point of a 10% strength acetic acid solution. […] The percentage change in cell growth was calculated by normalizing the measured values to the absorbance values of the zero plate (=0%) and the absorbance of the untreated (0 μM) cells (=100%). The IC50 values were determined by means of a four parameter fit.
Method for Caco-2 cells: as §1
Method for DU145 cells: as §1
Method for HeLa cells: as §1
Method for NCI-H460 cells: as §1

As for “5-fluoro-2-{2-[(3R)-3-methylmorpholin-4-yl]-8-(1H-pyrazol-5-yl)-1,7-naphthyridin-4-yl}aniline [Example 190]”, in the experiment on HeLa cells (read-out: Inhibition of HeLa cell proliferation, HeLa cells, 4 days incubation, crystal violet), the IC50 stood at 334 nM.

Turning to `CS(=O)(=O)c1cc(N2CCOCC2)nc2c(-c3cc[nH]n3)nccc12` [Example 32], the IC50 came to 1950 nM in the experiment with NCI-H460 cells, 84.7 nM in experiment [1] (setting [2]) and 36.7 nM in experiment [1] (setting [3]).

Take `CC(C)Oc1cc(N2CCOCC2)nc2c(-c3cc[nH]n3)nccc12` [Example 40, 4-isopropoxy-2-(morpholin-4-yl)-8-(1H-pyrazol-3-yl)-[1,7]naphthyridine]: the IC50 is 125 nM in experiment [1] (setting [2]), 99 nM in experiment [1] (setting [3]) and > 3000 nM in the experiment on B16F10 cells.

With `O=S1(=O)CCCN1c1cc(N2CCOCC2)nc2c(-c3ccn[nH]3)nccc12` [Example 216, 4-(1,1-dioxido-1,2-thiazolidin-2-yl)-2-(morpholin-4-yl)-8-(1H-pyrazol-5-yl)-1,7-naphthyridine], the IC50 was 1020 nM in the experiment on NCI-H460 cells, 84.4 nM in experiment [1] (setting [2]) and 1330 nM with DU145 cells.

In the case of `c1cc(-c2nccc3c(N4C[C@@H]5C[C@H]4CO5)cc(N4CCOCC4)nc23)[nH]n1` [Example 185, 2-(morpholin-4-yl)-4-[(1S,4S)-2-oxa-5-azabicyclo[2.2.1]hept-5-yl]-8-(1H-pyrazol-5-yl)-1,7-naphthyridine], the IC50 is 852 nM in experiment [1] (setting [2]) and > 3000 nM with HeLa cells (Homo sapiens, HeLa, 96 h, read-out: Inhibition of HeLa cell proliferation, HeLa cells, 4 days incubation, crystal violet).

As for `CCOP(C)(=O)c1cc(N2CCOC[C@H]2C)nc2c(-c3ccn[nH]3)nccc12` (stereo partly drawn) [Example 125, Ethyl methyl{2-[(3R)-3-methylmorpholin-4-yl]-8-(1H-pyrazol-5-yl)-1,7-naphthyridin-4-yl}phosphinate], the IC50 in the experiment with NCI-H460 cells worked out at 541 nM; in the experiment with Caco-2 cells, 2630 nM; in experiment [1] (setting [2]), 17.2 nM; in the experiment on DU145 cells it was 764 nM.

In the case of `C[C@@H]1COCCN1c1cc(C2=CCCN(C)C2)c2ccnc(-c3ccn[nH]3)c2n1` [Example 242, 2-[(3R)-3-methylmorpholin-4-yl]-4-(1-methyl-1,2,5,6-tetrahydropyridin-3-yl)-8-(1H-pyrazol-5-yl)-1,7-naphthyridine], the IC50 in experiment [1] (setting [2]) was found to be 95.9 nM.

As for `C[C@@H]1COCCN1c1cc(-c2cc(Cl)cnc2F)c2ccnc(-c3ccn[nH]3)c2n1` [Example 229, 4-(5-chloro-2-fluoropyridin-3-yl)-2-[(3R)-3-methylmorpholin-4-yl]-8-(1H-pyrazol-5-yl)-1,7-naphthyridine], the IC50 in experiment [1] (setting [2]) was 28.4 nM.

As to `CCSc1cc(N2CCOCC2)nc2c(-c3ccn[nH]3)nccc12` [Example 209, 4-(ethylsulfanyl)-2-(morpholin-4-yl)-8-(1H-pyrazol-5-yl)-1,7-naphthyridine], the IC50 in experiment [1] (setting [2]) turned out to be 385 nM.

Regarding `C[C@@H]1COCCN1c1cc(OCCCS(C)(=O)=O)c2ccnc(-c3ccn[nH]3)c2n1` [Example 197, 2-[(3R)-3-methylmorpholin-4-yl]-4-[3-(methylsulfonyl)propoxy]-8-(1H-pyrazol-5-yl)-1,7-naphthyridine], the IC50 in experiment [1] (setting [2]) was 72.4 nM.

For the molecule `C[C@@H]1COCCN1c1cc(-c2ccnc(N3CCOCC3)c2F)c2ccnc(-c3ccn[nH]3)c2n1` [Example 223, 4-[3-fluoro-2-(morpholin-4-yl)pyridin-4-yl]-2-[(3R)-3-methylmorpholin-4-yl]-8-(1H-pyrazol-5-yl)-1,7-naphthyridine], in experiment [1] (setting [2]), the IC50 came to 124 nM.

For `O=C(c1ccc(-c2cc(N3CCOCC3)nc3c(-c4ccn[nH]4)nccc23)cc1)N1CCCCC1` [Example 289, {4-[2-(morpholin-4-yl)-8-(1H-pyrazol-5-yl)-1,7-naphthyridin-4-yl]phenyl}(piperidin-1-yl)methanone], the IC50 in experiment [1] (setting [2]) is 2990 nM.

As for `C[C@@H]1COCCN1c1cc(N2CCCC2)c2ccnc(-c3ccn[nH]3)c2n1` [Example 175, 2-[(3R)-3-methylmorpholin-4-yl]-8-(1H-pyrazol-5-yl)-4-(pyrrolidin-1-yl)-1,7-naphthyridine], the IC50 in experiment [1] (setting [2]) was determined as 221 nM.
